Like-named read-outs stand apart in the source and are kept apart here.
Key:
CYP1A2 = type: cell-based, human; details: 3-MC 5 μM for 24 h; 3D versus control 2D culture
Protocol: Then, total RNA was extracted from cell pellets using NucleoSpin RNA (Macherey-Nagel, Hoerdt, France) and the concentration of total RNA was measured with a NanoDrop ND-1000 (NanoDrop Technologies, Wilmington, USA). Total RNA was used for cDNA synthesis using the High Capacity cDNA reverse transcription kit (Applied Biosystems, Saint Aubin, France). Real-time PCR for all genes was performed using SYBR green technology with the Power SYBR Green PCR master mix (Applied Biosystems, Saint Aubin, France) and the CFX384 Real-Time System (Biorad) according to the manufacturer's recommendations. Primer sequences used are described in Tables 2 and 3 below.
The amplification curves were analyzed with the Biorad CFX Manager software using the comparative regression method. GAPDH was used for the normalization of expression data. The relative amount of measured mRNA in samples was determined using the 2-ΔΔCT method where ΔΔCT=(CTtarget-CTGAPDH)sample−(CTtarget-CTGAPDH)calibrator. Final results were expressed as the n-fold differences in target gene expression in tested samples when compared with the mean expression value of calibrator. Values are given for one experiment representative of at least three independent experiments.

CYP 1A1/2 = details: human
[1] = system: primary human hepatocytes (PHH)
Protocol: PHH either in control 2D culture (2D) or in 3D culture established according to the method of the invention in a collagen matrix (3D) were incubated with the indicated genotoxic drugs at the indicated concentrations (see Table 7) from the start of the culture. After 9 days, PHH were extracted from the collagen matrix by the action of purified collagenase. The cell pellets were resuspended in 0.5% low-melting point agarose and laid on conventional microscope slides covered with regular agarose. The electrophoresis migration was processed and after staining with propidium iodide, at least 100 images were acquired using a fluorescence microscope. The images were analyzed using the Comet Assay IV software. The extent of DNA damage in individual cells was evaluated by the percentage of tail DNA.

[2] = system: primary human hepatocytes (PHH); type: cell-based
Protocol: After 9 days, immuno-histochemical staining was performed as described hereinabove to detect the presence of phosphorylated H2AX (i.e., γH2Ax), a marker of DNA double-strand break, in the PHH.

[3] = system: primary human hepatocytes (PHH); remark: listed apart in the source
[4] = system: MAPK MEK1/2-ERK1/2 pathway

`Cc1ccc2cc3c(ccc4ccccc43)c3c2c1CC3` [3-MC, 3-methylcholanthrene] was tested, and the “CYP1A2 mRNA expression after 3-MC induction” value (CYP1A2) was “significantly increased CYP1A2 mRNA expression in PHH in 3D culture as compared to that in PHH in control 2D culture” and the “induction of CYP1A (EROD) activity” value (CYP 1A1/2) was “potentialization of 3-methylcholanthrene (3-MC) induction of CYP1A (EROD) activity was only observed in PHH in 3D culture”.

`Nc1ccc(-c2ccccc2)cc1` [4-ABP, 4-aminobiphenyl] was tested, and the “levels of DNA damages in 3D culture, in words” value [1] was “higher (about the double) and dose-dependent levels of DNA damages”, the “levels of DNA damages (percentage of tail DNA)” value ([1]; human) was “about 3%” and the “PHH with DNA damages (γH2Ax positive cells)” value ([2]; human) was “about 50%”.

For `N#CC(=C(/N)Sc1ccccc1N)/C(C#N)=C(\N)Sc1ccccc1N` [U0126], the “Ki67 / cyclin D1 positive cells after transient MEK/ERK inhibition” value [3] was “No positive cells could be detected” and the “ERK1/2 activity (ERK1/2 phosphorylation)” value [4] was “strong inhibition of ERK1/2 activity”.

For aflatoxin B1 [AFB1], the “PHH with DNA damages (γH2Ax positive cells)” value [2] was “about 35%”.
